Experimental data published in patent publication US9278958B2, “Anti-cancer compounds” (KATHOLIEKE UNIVERSITEIT LEUVEN, priority 2012, dated 2016).
Read-outs that look alike come from different tables or passages of the source. Blank lines part the entries; values can stand above or below the compound they belong to.

How the values were obtained:
CEM cells = assay: Cytostatic assay, CEM; type: cell-based; settings: for Ratio (tumor cell selectivity): ratio IC50 HeLa / IC50 CEM
Method: (§1) To each well of a 96-well microtiter plate were added 5-7.5×10^4 cells and a given amount of the test compound. The cells were allowed to proliferate for 48 h to 96 h (depending on the nature of the cell line) at 37° C. in a humidified CO2-controlled atmosphere. At the end of the incubation period, the cells were counted in a Coulter Counter (Coulter Electronics Ltd, Harpenden Herts, United Kingdom).

[1] = tested on: HeLa cervix carcinoma cells; assay: Cytostatic assay, HeLa; type: cell-based, human
Method: as §1

[2] = Table 1b, read-out: IC50 (μM) (CEM)
[3] = Table 1b, read-out: IC50 (μM) (HeLa)

SMILES: COC(=O)c1cc(CSCc2ccc(OC)cc2)sc1N1C(=O)c2ccccc2C1=O [TJ127, Methyl 2-phthalimido-5-(2-(4-methoxybenzyl)sulfanylmethyl)thiophene-3-carboxylate]
IC50 (CEM cells; [2]): 25 ± 8 µM
IC50 [1, 3]: 111 ± 20 µM

SMILES: COC(=O)c1cc(CSc2ccc(OC)cc2)sc1N1C(=O)c2ccccc2C1=O [TJ21, Methyl 2-phthalimido-5-(2-(4-methoxyphenyl)sulfanylmethyl)thiophene-3-carboxylate]
IC50 (CEM cells; [2]): 4.9 ± 1.4 µM
IC50 [1, 3]: 112 ± 2 µM

SMILES: CCCCSCc1cc(C(=O)OC)c(N2C(=O)c3ccccc3C2=O)s1 [TJ119, Methyl 2-phthalimido-5-(2-(butyl)sulfanylmethyl)thiophene-3-carboxylate]
IC50 (CEM cells; Table 1c, read-out: IC50 (μM) CEM): 6.6 ± 3.2 µM
IC50 ([1]; Table 1c, read-out: IC50 (μM) HeLa): 104 ± 1 µM

Continued, in another order:

IC50 (CEM cells; Homo sapiens, CCRF-CEM, CEM cells, Table 7, 5-arylthiomethyl-substituted 2-amino-3-carboxymethylthiophenes, read-out: IC50 (μM) CEM): 0.34 µM
IC50 ([1]; Homo sapiens, HeLa cells, Table 7, 5-arylthiomethyl-substituted 2-amino-3-carboxymethylthiophenes, read-out: IC50 (μM) HeLa): 49 µM
SMILES: CCc1ccc(SCc2cc(C(=O)OC)c(N)s2)cc1 [TJ185, Methyl 2-amino-5-((4-ethylphenylthio)methyl)thiophene-3-carboxylate]
Ratio (tumor cell selectivity) (CEM cells; Table 7): 144

IC50 (CEM cells; CEM cells, Table 7, 5-arylthiomethyl-substituted 2-amino-3-carboxymethylthiophenes, read-out: IC50 (μM) CEM): 3.5 µM
IC50 (CEM cells; [2]): 3.5 ± 1.1 µM
IC50 ([1]; HeLa cells, Table 7, 5-arylthiomethyl-substituted 2-amino-3-carboxymethylthiophenes, read-out: IC50 (μM) HeLa): 61 µM
IC50 [1, 3]: 61 ± 38 µM
SMILES: COC(=O)c1cc(CSCc2ccccc2)sc1N [TJ57, Methyl 2-amino-5-(2-(phenyl)methylsulfanylmethyl)thiophene-3-carboxylate]
Ratio (tumor cell selectivity) (CEM cells; Table 7): 17

IC50 (CEM cells; Homo sapiens, CCRF-CEM, CEM cells, Table 6, 5-alkyl-substituted 2-aminothiophenes, read-out: IC50 (μM) CEM): 175 µM
IC50 ([1]; Homo sapiens, HeLa cells, Table 6, 5-alkyl-substituted 2-aminothiophenes, read-out: IC50 (μM) HeLa): 180 µM
SMILES: CCc1cc(C(=O)OC)c(N)s1 [TJ157, Methyl 2-amino-5-ethylthiophene-3-carboxylate]
Ratio (tumor cell selectivity) (CEM cells; Table 6): 1
